Data: US4455315A, “N-(Difluoromethoxy substituted phenyl)-dichloromaleimides used in agricultural and horticultural fungicidal methods” (Showa Denko Kabushiki Kaisha, priority 1980, dated 1984)

What was measured:
plant pathogens = conditions: U.S. Pat. No. 2,444,536; cited from earlier work
[1] = system: potted young oranges (variety: Unshu); assay: Phytotoxicity of treating compound, Citrus Scab test; conditions: 250 ppm
Method: (§1) The resulting solution is sprayed, in an amount corresponding to 600 l/10a per pot, on potted young oranges (variety: Unshu) immediately after fresh leaves are unfolded. After one day, the potted young oranges are inoculated with Elsinoe fawcetti, by spraying a suspension of crushed hyphae thereof containing 50 crushed hyphae per microscopic field (magnification: X100). The suspension is prepared by culturing Elsinoe fawcetti on potato medium at a temperature of 25° C. for 30 days to form hyphae and suspending it in sterilized water.
(§2) After inoculation, the potted young oranges are allowed to stand at a temperature of 25° C. in a moist room for two days and then transferred to a greenhouse. Twenty-three days after inoculation, the leaf infested by citrus scab is examined, i.e., number of pathologic spots on a leaf is examined and the numbers of leaves infested by cirtrus scab are counted. Then, an infestation rate is calculated according to the following equation:

Venturia inaequalis = assay: Apple Scab-controlling Test; assay type: in vivo; conditions: 500 ppm; for Infested Leaves (%): seven days after inoculation; for Infestation Rate: seven days, (Σnf/3N)×100; for Number of Leaves Showing Each Infestation Index: 0: index 0 = 0% infested area; for Number of Leaves Showing Each Infestation Index: 1: index 1 = 1-25% infested area; for Number of Leaves Showing Each Infestation Index: 2: index 2 = 26-50% infested area; for Number of Leaves Showing Each Infestation Index: 3: index 3 = 51-100% infested area
Elsinoe fawcetti = assay: Citrus Scab-controlling Test; conditions: 250 ppm; for Infested Leaves (%): 23 days after inoculation; for Infestation Rate: 23 days, (Σnf/3N)×100; for Number of Leaves Showing Each Infestation Index: 0: index 0 = 0 spots per leaf; for Number of Leaves Showing Each Infestation Index: 1: index 1 = 1-3 spots per leaf; for Number of Leaves Showing Each Infestation Index: 2: index 2 = 4-10 spots per leaf; for Number of Leaves Showing Each Infestation Index: 3: index 3 = ≥11 spots per leaf
Method: as §1, §2
Infestation Rate=(Σnf/3N)×100
wherein n is the number of the infested leaves, f is an infestation index and N is the total number of the examined leaves. The infestation index is as follows.
For comparison, the above test is also carried out using a reference compound (benomyl) and plain water.

[2] = system: potted apples (variety: Star King); assay: Phytotoxicity of treating compound, Apple Scab test; conditions: 500 ppm
[3] = system: potted young oranges (variety: Unshu); assay: Phytotoxicity of treating compound, Citrus Melanose test; conditions: 500 ppm
[4] = system: potted young pears (variety: Niju-seiki); assay: Phytotoxicity of treating compound, Pear Black Spot test; conditions: 500 ppm, damaged area on leaves
Method: (§3) The resulting solution is sprayed on unfolded leaves of potted young pears (variety: Niju-seiki) in an amount corresponding to 600 l/10a per pot. After air-drying, the unfolded leaves are inoculated with Alternaria kikuchiana, by spraying a suspension of conidia thereof containing 30 conidia per microscopic field (magnification: X200).
(§4) After inoculation, the potted young pears are allowed to stand at a temperature of 27° C. in a moist room for one day and then transferred to a greenhouse. Six days after inoculation, the leaf area infested by pear black spot, i.e., the area of pathologic spots on a leaf is examined on 5 unfolded leaves per pot and an average infestation rate is then calculated.
*The phytotoxicity of the treating compound is evaluated according to the

ichthyotoxicity = conditions: killifish, in vivo; read-out: Tlm48
TA-100 = assay: mutagenicity test (Ames test), TA-100; assay type: cell-based
Alternaria kikuchiana [5] = assay: Spore-germination Inhibiting Test; assay type: cell-based; conditions: 10 ppm, 27° C., 20 hours
Method: Spore-germination Inhibiting Test for Alternaria kukuchiana An apricot medium is inoculated with Alternaria kikuchiana and incubated at a temperature of 27° C. for 7-10 days to form conidia on the medium. […] 0.02 Ml of the prepared spore suspension containing the compound according to the present invention is dropped on a slide glass and incubated at a temperature of 27° C. under moist conditions for 20 hours. Thereafter, whether or not the spores germinate is examined under a microscope and the spore-germination rate is then calculated.

Alternaria mali = assay: Apple Alternaria Leaf Spot-controlling Test; assay type: in vivo; conditions: 500 ppm, six days after inoculation
Alternaria kikuchiana [6] = assay: Pear Black Spot-controlling Test; conditions: 500 ppm, six days after inoculation
Method: Pear Black Spot (Alternaria kikuchiana)-controlling Test
as §3, §4

[7] = system: potted young oranges (variety: Unshu); assay: Phytotoxicity of treating compound, residual activity test; conditions: 1000 ppm, 23 mm/hr of rain
[8] = system: potted apples (variety: Star King); assay: Test of Phytotoxicity to Apples; conditions: 75% Wettable Powders, dilution × 750, 600 l/10 a, two weeks
Method: The resulting solution of wettable powders is sprayed, in an amount corresponding to 600 l/10a per pot, on potted apples (variety: Star King) immediately after fresh leaves are unfolded. After air-drying, the potted apples are allowed to stand in a greenhouse. Two weeks after the spray treatment, the phytotoxicity, of the compound according to the present invention, to the potted apples is examined.
For comparison, the above test is also carried out using a reference compound (fluoroimide) and plain water.

TA-98 = assay: mutagenicity test (Ames test), TA-98; assay type: cell-based
Phytophthora infestans = assay type: in vivo; conditions: 500 ppm; for Infested Leaves (%): six days after inoculation; for Infestation Rate: six days, (Σnf/3N)×100; for Number of Leaves Showing Each Infestation Index: 0: index 0 = 0% infested area; for Number of Leaves Showing Each Infestation Index: 1: index 1 = 1-25% infested area; for Number of Leaves Showing Each Infestation Index: 2: index 2 = 26-50% infested area; for Number of Leaves Showing Each Infestation Index: 3: index 3 = 51-100% infested area
[9] = system: potted potatoes (variety: Chippewa); conditions: 500 ppm
Diaporthe citri [10] = assay: Citrus Melanose-controlling Test; assay type: in vivo; conditions: 500 ppm; for Infested Leaves (%): 24 days after inoculation; for Infestation Rate / Number of Leaves Showing Infestation Index 0 / Number of Leaves Showing Infestation Index 1 / Number of Leaves Showing Infestation Index 2 / Number of Leaves Showing Infestation Index 3 / Number of Leaves Showing Infestation Index 4: 24 days; for Infestation Rate: (Σnf/4N)×100; for Number of Leaves Showing Infestation Index 0: index 0 = 0-25% infested area; for Number of Leaves Showing Infestation Index 1: index 1 = 26-50% infested area; for Number of Leaves Showing Infestation Index 2: index 2 = 51-75% infested area; for Number of Leaves Showing Infestation Index 3: index 3 = 76-90% infested area; for Number of Leaves Showing Infestation Index 4: index 4 = 91-100% infested area
peroral acute toxicity = conditions: in vivo, po, four-week-old male mouse
Diaporthe citri [11] = assay: Test of Residual Activity against Citrus Melanose; assay type: in vivo; conditions: 1000 ppm, 23 mm/hr of rain; for Infested Leaves (%): 24 days after inoculation; for Infestation Rate: 24 days, (Σnf/4N)×100; for Number of Leaves Showing Each Infestation Index: 0: index 0 = 0-25% infested area; for Number of Leaves Showing Each Infestation Index: 1: index 1 = 26-50% infested area; for Number of Leaves Showing Each Infestation Index: 2: index 2 = 51-75% infested area; for Number of Leaves Showing Each Infestation Index: 3: index 3 = 76-90% infested area; for Number of Leaves Showing Each Infestation Index: 4: index 4 = 91-100% infested area
[12] = system: Pseudoperonospora cubensis; assay: Cucumber Downy Mildew-controlling Test; assay type: in vivo; conditions: 1000 ppm, five days after inoculation
Description: Cucumber Downy Mildew (Pseudoperonospora cubensis)-controlling Test […] After one day, the cucumbers are inoculated with Pseudoperonospora cubensis, by spraying a suspension thereof containing 30 spores per microscopic field (magnification: […]), which are collected from the leaves infested by cucumber downy mildew. […] In this test, one cucumber is planted in each pot and three pots are used.

[13] = system: potted pears (variety: Niju-seiki); assay: Test of Phytotoxicity to Pears; assay type: in vivo, pear; conditions: 75% Wettable Powders, two weeks
Description: Test of Phytotoxicity to Pears
After air-drying, the potted pears are allowed to stand in a greenhouse.

crops and trees = conditions: cited from earlier work

O=C1C=CC(=O)N1c1ccccc1 [N-phenylmaleimide]
fungicidal effect (plant pathogens): has a fungicidal effect

CCCCNC(=O)n1c(NC(=O)OC)nc2ccccc21 [benomyl, Methyl-1-(butylcarbamoyl)-2-benzimidazolecarbamate]
Phytotoxicity of Treating Compound [1]: - (0%)
Infested Leaves (%) (Venturia inaequalis): 0%
Infestation Rate (Venturia inaequalis): 0
Number of Leaves Showing Each Infestation Index: 0 (Venturia inaequalis): 25 leaves
Number of Leaves Showing Each Infestation Index: 1 (Venturia inaequalis): 0 leaves
Number of Leaves Showing Each Infestation Index: 2 (Venturia inaequalis): 0 leaves
Number of Leaves Showing Each Infestation Index: 3 (Venturia inaequalis): 0 leaves
Infested Leaves (%) (Elsinoe fawcetti): 0.6%
Infestation Rate (Elsinoe fawcetti): 0.2
Number of Leaves Showing Each Infestation Index: 0 (Elsinoe fawcetti): 328 leaves
Number of Leaves Showing Each Infestation Index: 1 (Elsinoe fawcetti): 2 leaves
Number of Leaves Showing Each Infestation Index: 2 (Elsinoe fawcetti): 0 leaves
Number of Leaves Showing Each Infestation Index: 3 (Elsinoe fawcetti): 0 leaves
Phytotoxicity of Treating Compound [2]: - (0%)

O=C1C(Cl)=C(Cl)C(=O)N1c1ccc(OC(F)F)cc1 [compound 3, 2,3-dichloro-N-(p-difluoromethoxyphenyl)maleimide]
Phytotoxicity of Treating Compound [3]: - (0%)
Phytotoxicity of Treating Compound [1]: - (0%)
Phytotoxicity of Treating Compound [4]: - (0%)
LC50 at 48 h (ichthyotoxicity): > 10 µg/mL
Ames test TA-100 (TA-100): negative
Infested Leaves (%) (Venturia inaequalis): 0%
Infestation Rate (Venturia inaequalis): 0
Number of Leaves Showing Each Infestation Index: 0 (Venturia inaequalis): 25 leaves
Number of Leaves Showing Each Infestation Index: 1 (Venturia inaequalis): 0 leaves
Number of Leaves Showing Each Infestation Index: 2 (Venturia inaequalis): 0 leaves
Number of Leaves Showing Each Infestation Index: 3 (Venturia inaequalis): 0 leaves
Spore-germination Rate (%) (Alternaria kikuchiana [5]): 0%
Average Infestation Rate (%) (Based on infested area) (Alternaria mali): 0%
Average Infestation Rate (%) (Based on infested area) (Alternaria kikuchiana [6]): 2%
Infested Leaves (%) (Elsinoe fawcetti): 0.6%
Infestation Rate (Elsinoe fawcetti): 0.2
Number of Leaves Showing Each Infestation Index: 0 (Elsinoe fawcetti): 311 leaves
Number of Leaves Showing Each Infestation Index: 1 (Elsinoe fawcetti): 2 leaves
Number of Leaves Showing Each Infestation Index: 2 (Elsinoe fawcetti): 0 leaves
Number of Leaves Showing Each Infestation Index: 3 (Elsinoe fawcetti): 0 leaves
Phytotoxicity of Treating Compound [7]: - (0%)
Phytotoxicity of Treating Compound [8]: - (0%)
Phytotoxicity of Treating Compound [2]: - (0%)
Ames test TA-98 (TA-98): negative
Infested Leaves (%) (Phytophthora infestans): 0%
Infestation Rate (Phytophthora infestans): 0
Number of Leaves Showing Each Infestation Index: 0 (Phytophthora infestans): 20 leaves
Number of Leaves Showing Each Infestation Index: 1 (Phytophthora infestans): 0 leaves
Number of Leaves Showing Each Infestation Index: 2 (Phytophthora infestans): 0 leaves
Number of Leaves Showing Each Infestation Index: 3 (Phytophthora infestans): 0 leaves
Phytotoxicity of Treating Compound [9]: - (0%)
Infested Leaves (%) (Diaporthe citri [10]): 0%
Infestation Rate (Diaporthe citri [10]): 0
Number of Leaves Showing Infestation Index 0 (Diaporthe citri [10]): 271 leaves
Number of Leaves Showing Infestation Index 1 (Diaporthe citri [10]): 0 leaves
Number of Leaves Showing Infestation Index 2 (Diaporthe citri [10]): 0 leaves
Number of Leaves Showing Infestation Index 3 (Diaporthe citri [10]): 0 leaves
Number of Leaves Showing Infestation Index 4 (Diaporthe citri [10]): 0 leaves
LD50 (peroral acute toxicity): > 300 mg/kg
Infested Leaves (%) (Diaporthe citri [11]): 0%
Infestation Rate (Diaporthe citri [11]): 0
Number of Leaves Showing Each Infestation Index: 0 (Diaporthe citri [11]): 187 leaves
Number of Leaves Showing Each Infestation Index: 1 (Diaporthe citri [11]): 0 leaves
Number of Leaves Showing Each Infestation Index: 2 (Diaporthe citri [11]): 0 leaves
Number of Leaves Showing Each Infestation Index: 3 (Diaporthe citri [11]): 0 leaves
Number of Leaves Showing Each Infestation Index: 4 (Diaporthe citri [11]): 0 leaves
Average Infestation Rate (%) (Based on infested area) [12]: 0%
Phytotoxicity of Treating Compound ([13]; dilution × 500, 600 l/10 a): - (0%)
Phytotoxicity of Treating Compound ([13]; dilution × 750, 600 l/10 a): - (0%)

O=C1C(Cl)=C(Cl)C(=O)N1c1ccc(F)cc1 [fluoroimide, N(p-Fluorophenyl)-2,3-dichloromaleimide]
Phytotoxicity of Treating Compound [8]: + (6-25%)
phytotoxicity (crops and trees; pear trees, strawberries, beans, and very many other crops): severe phytotoxicity
leaf-burn (crops and trees; wide variety of crops and trees): liable to cause leaf-burn
Phytotoxicity of Treating Compound ([13]; dilution × 500, 600 l/10 a): ++ (26-50%)
Phytotoxicity of Treating Compound ([13]; dilution × 750, 600 l/10 a): + (6-25%)

ZnMnEthylenebisdithiocarbamate [mancozeb]
Phytotoxicity of Treating Compound [3]: - (0%)
Phytotoxicity of Treating Compound [7]: - (0%)
Infested Leaves (%) (Phytophthora infestans): 0%
Infestation Rate (Phytophthora infestans): 0
Number of Leaves Showing Each Infestation Index: 0 (Phytophthora infestans): 20 leaves
Number of Leaves Showing Each Infestation Index: 1 (Phytophthora infestans): 0 leaves
Number of Leaves Showing Each Infestation Index: 2 (Phytophthora infestans): 0 leaves
Number of Leaves Showing Each Infestation Index: 3 (Phytophthora infestans): 0 leaves
Phytotoxicity of Treating Compound [9]: - (0%)
Infested Leaves (%) (Diaporthe citri [10]): 0%
Infestation Rate (Diaporthe citri [10]): 0
Number of Leaves Showing Infestation Index 0 (Diaporthe citri [10]): 204 leaves
Number of Leaves Showing Infestation Index 1 (Diaporthe citri [10]): 0 leaves
Number of Leaves Showing Infestation Index 2 (Diaporthe citri [10]): 0 leaves
Number of Leaves Showing Infestation Index 3 (Diaporthe citri [10]): 0 leaves
Number of Leaves Showing Infestation Index 4 (Diaporthe citri [10]): 0 leaves
Infested Leaves (%) (Diaporthe citri [11]): 0%
Infestation Rate (Diaporthe citri [11]): 0
Number of Leaves Showing Each Infestation Index: 0 (Diaporthe citri [11]): 159 leaves
Number of Leaves Showing Each Infestation Index: 1 (Diaporthe citri [11]): 0 leaves
Number of Leaves Showing Each Infestation Index: 2 (Diaporthe citri [11]): 0 leaves
Number of Leaves Showing Each Infestation Index: 3 (Diaporthe citri [11]): 0 leaves
Number of Leaves Showing Each Infestation Index: 4 (Diaporthe citri [11]): 0 leaves
